Test results as given in ChEMBL document CHEMBL1136063, “Oxal hydroxamic acid derivatives with inhibitory activity against matrix metalloproteinases” (Bioorg Med Chem Lett, 2002).

Legend:
[1] = molecular target: T1, Matrix metalloproteinase-14 (Homo sapiens, UniProt P50281); experiment: Percent remaining enzyme activity (RA) in catalytic domains of the membrane type MT1-MMP (matrix metalloprotease-14); parameters: concentration or dose not given beside the values
[2] = molecular target: T1, Matrix metalloproteinase-14; experiment: (§1) Inhibition of membrane type MT1-MMP (Matrix metalloprotease-14)catalytic domain
[3] = molecular target: T2, Neutrophil collagenase (Homo sapiens, UniProt P22894); experiment: Percent remaining enzyme activity (RA) in neutrophil collagenase (matrix metalloprotease-8); parameters: concentration or dose not given beside the values
Target sequence in this assay (P22894 101-467 limits assumed): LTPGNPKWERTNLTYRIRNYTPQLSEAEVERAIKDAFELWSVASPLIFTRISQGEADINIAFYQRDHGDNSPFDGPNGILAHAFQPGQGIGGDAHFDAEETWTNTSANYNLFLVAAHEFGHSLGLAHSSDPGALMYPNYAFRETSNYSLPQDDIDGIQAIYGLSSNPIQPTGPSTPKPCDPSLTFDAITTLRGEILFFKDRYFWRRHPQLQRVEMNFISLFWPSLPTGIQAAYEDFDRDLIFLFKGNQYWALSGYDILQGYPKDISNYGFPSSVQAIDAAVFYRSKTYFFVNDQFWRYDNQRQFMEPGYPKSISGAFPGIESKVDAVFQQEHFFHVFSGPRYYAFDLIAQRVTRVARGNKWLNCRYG

[4] = molecular target: T3, Matrix metalloproteinase-9 (Homo sapiens, UniProt P14780); experiment: Inhibitory activity against human gelatinase B (matrix metalloprotease-9)
[5] = molecular target: T3, Matrix metalloproteinase-9; experiment: Percent remaining enzyme activity (RA) in human gelatinase B (matrix metalloprotease-9); parameters: concentration or dose not given beside the values
[6] = molecular target: T2, Neutrophil collagenase; experiment: Tested for its inhibitory activity against neutrophil collagenase (Matrix metalloprotease-8)
Target sequence in this assay (P22894 whole entry): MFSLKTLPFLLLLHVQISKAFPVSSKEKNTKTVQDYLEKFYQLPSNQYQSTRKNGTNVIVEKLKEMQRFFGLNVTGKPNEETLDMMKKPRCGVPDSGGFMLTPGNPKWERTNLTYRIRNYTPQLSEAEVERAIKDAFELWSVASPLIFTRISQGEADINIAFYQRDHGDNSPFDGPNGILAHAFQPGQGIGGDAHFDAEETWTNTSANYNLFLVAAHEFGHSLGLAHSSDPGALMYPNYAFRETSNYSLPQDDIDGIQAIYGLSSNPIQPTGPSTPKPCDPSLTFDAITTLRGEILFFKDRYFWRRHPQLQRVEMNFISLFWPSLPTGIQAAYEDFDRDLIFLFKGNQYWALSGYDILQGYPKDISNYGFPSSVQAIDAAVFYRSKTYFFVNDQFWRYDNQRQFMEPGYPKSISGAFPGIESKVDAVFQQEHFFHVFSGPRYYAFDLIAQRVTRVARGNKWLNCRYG

[7] = molecular target: T1, Matrix metalloproteinase-14; experiment: as §1; settings: concentration not given here

T3 sequence (P14780 whole entry): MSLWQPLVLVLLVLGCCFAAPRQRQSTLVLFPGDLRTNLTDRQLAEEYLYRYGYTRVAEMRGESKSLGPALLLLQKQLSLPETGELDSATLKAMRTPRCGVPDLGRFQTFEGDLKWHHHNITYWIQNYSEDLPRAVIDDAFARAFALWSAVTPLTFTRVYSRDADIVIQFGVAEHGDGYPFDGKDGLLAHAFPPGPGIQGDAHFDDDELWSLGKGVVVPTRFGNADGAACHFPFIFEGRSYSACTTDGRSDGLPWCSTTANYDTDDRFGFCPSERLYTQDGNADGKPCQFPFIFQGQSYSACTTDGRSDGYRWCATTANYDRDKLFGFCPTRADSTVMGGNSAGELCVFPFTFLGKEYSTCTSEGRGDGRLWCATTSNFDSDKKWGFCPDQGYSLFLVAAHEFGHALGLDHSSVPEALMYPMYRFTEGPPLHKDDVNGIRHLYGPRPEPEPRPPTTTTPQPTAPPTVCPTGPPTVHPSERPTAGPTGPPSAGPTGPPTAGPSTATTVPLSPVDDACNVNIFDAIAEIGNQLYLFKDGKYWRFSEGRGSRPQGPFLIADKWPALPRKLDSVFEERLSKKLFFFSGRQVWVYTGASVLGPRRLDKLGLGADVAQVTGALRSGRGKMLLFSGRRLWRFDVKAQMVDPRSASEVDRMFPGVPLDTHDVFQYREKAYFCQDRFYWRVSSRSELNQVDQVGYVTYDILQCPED

Row | SMILES | residual activity [1] [%] | Ki [2] [µM] | residual activity [3] [%] | Ki [4] [µM] | residual activity [5] [%] | Ki [6] [µM] | inhibition [7] [%]
1 | CCCC[C@H](NC(=O)C(=O)NO)C(=O)N[C@H](Cc1ccc(OCc2ccccc2)cc1)C(=O)N(C)C | 29 | 33 | 34 | 7.5 | 13 |  | 
2 | CN(C)C(=O)[C@H](COCc1ccccc1)NC(=O)C(=O)NO | 41 |  | 56 |  | 40 |  | 
3 | C[C@@H](NC(=O)C(=O)NO)c1ccc2ccccc2c1 | 54 |  | 43 | 3.3 | 7 |  | 
4 | CC(C)C[C@H](NC(=O)C(=O)NO)C(=O)N(C)C | 61 |  | 72 |  | 55 |  | 
5 | O=C(NO)C(=O)NCCc1c[nH]c2ccccc12 | 48 |  | 18 | 0.8 | 3 |  | 
6 | O=C(NO)C(=O)NCCN(C(=O)C(=O)NO)c1cccc2ccccc12 | 20 |  | 14 | 0.1 | 0 |  | 
7 | CC(NC(=O)[C@H](Cc1ccccc1)NC(=O)C(=O)NO)c1cccc2ccccc12 (some centres undefined) | 42 |  | 5 |  | 2 |  | 
8 | CN(C)C(=O)[C@H](Cc1cccc2ccccc12)NC(=O)C(=O)NO | 26 |  | 47 | 8.2 | 15 |  | 
9 | CCCCC(CC)COCCCNC(=O)C(=O)NO (centres undefined) | 14 | 9 | 12 | 0.25 | 3 | 7 | 
10 | C[C@H](NC(=O)[C@H](Cc1ccc(NC(=O)OCc2ccccc2)cc1)NC(=O)C(=O)NO)c1ccccc1 | 76 |  | 32 |  | 22 |  | 
11 | C[C@H](NC(=O)[C@H](Cc1ccc(NC(=O)Nc2ccccc2)cc1)NC(=O)C(=O)NO)c1ccccc1 | 74 |  | 6 | 0.8 | 5 | 1 | 
12 | CN(C)C(=O)[C@H](Cc1c[nH]c2ccccc12)NC(=O)C(=O)NO | 33 | 15 | 44 | 4.4 | 25 | 28 | 
13 | C[C@H](NC(=O)C(=O)NO)c1ccc2ccccc2c1 | 80 |  | 89 |  | 67 |  | 
14 | O=C(NO)C(=O)NCCC(NC(=O)C(=O)NO)C1CCCCC1 (centres undefined) | 48 |  | 39 |  | 5 |  | 
15 | CN(C)C(=O)[C@@H](Cc1ccc(OCc2ccccc2)cc1)NC(=O)[C@H](Cc1ccccc1)NC(=O)C(=O)NO | 5 | 1.4 | 10 | 1 | 3 |  | 
16 | CC(OCc1ccccc1)[C@H](NC(=O)C(=O)NO)C(=O)N(C)C (some centres undefined) | 66 |  | 67 | 4 | 18 | 75 | 
17 | O=C(NO)C(=O)N[C@@H](Cc1ccc(COc2ccccc2)cc1)C(=O)NO | 23 |  | 5 |  | 2 |  | 
18 | CNC(=O)[C@H](Cc1ccc(OCc2ccccc2)cc1)NC(=O)C(=O)NO | 53 |  | 4 | 2 | 1 | 1.5 | 
19 | CN(C)C(=O)[C@H](Cc1ccc2ccccc2c1)NC(=O)C(=O)NO | 30 |  | 15 | 44 | 19 | 6 | 
20 | O=C(NO)C(=O)NCCc1c[nH]c2ccc(Cl)cc12 | 35 | 35 | 15 | 0.35 | 2 | 14 | 
21 | CN(C)C(=O)[C@H](Cc1ccc(COc2ccccc2)cc1)NC(=O)C(=O)NO | 37 |  | 43 | 3 | 7 | 22 | 

Continued, values first:

Row | residual activity [1] [%] | Ki [2] [µM] | residual activity [3] [%] | Ki [4] [µM] | residual activity [5] [%] | Ki [6] [µM] | inhibition [7] [%] | SMILES
22 | 19 | 11 | 1 | 3.3 | 6 |  |  | C[C@H](NC(=O)[C@H](COCc1ccccc1)NC(=O)C(=O)NO)c1ccccc1
23 | 37 |  | 4 | 0.5 | 5 | 1 |  | C[C@H](NC(=O)[C@H](Cc1ccc2ccccc2c1)NC(=O)C(=O)NO)c1ccccc1
24 | 15 | 9.5 | 48 | 14 | 25 | 38 |  | CN(C)C(=O)[C@H](Cc1ccccc1)NC(=O)C(=O)NO
25 | 53 |  | 1 | 0.6 | 3 |  |  | C[C@H](NC(=O)[C@H](CC(=O)OCc1ccccc1)NC(=O)C(=O)NO)c1ccccc1
26 |  | 180 | 9 | 9 | 35 | 6 | 80 | C[C@H](NC(=O)C(=O)NO)C(=O)N[C@@H](C)c1ccccc1
27 | 79 |  | 74 |  | 60 |  |  | CC(C)C[C@H](NC(=O)C(=O)NO)C(=O)N[C@H](C)c1ccccc1
28 | 54 | 20 | 3 | 5.5 | 9 | 1.7 |  | CC(C)C[C@H](NC(=O)C(=O)NO)C(=O)N[C@@H](C)c1ccccc1
29 | 54 |  | 0 | 0.6 | 0 | 0.25 |  | C[C@H](NC(=O)[C@H](Cc1ccc(O)cc1)NC(=O)C(=O)NO)c1ccccc1
30 | 71 |  | 8 | 3.2 | 11 | 3 |  | CC(OCc1ccccc1)[C@H](NC(=O)C(=O)NO)C(=O)N[C@@H](C)c1ccccc1 (some centres undefined)
31 | 36 |  | 2 | 0.1 | 1 | 0.4 |  | C[C@H](NC(=O)[C@H](Cc1c[nH]c2ccccc12)NC(=O)C(=O)NO)c1ccccc1
32 |  | 29 | 0 | 0.15 | 1 | 0.3 |  | C[C@H](NC(=O)[C@H](Cc1cccc2ccccc12)NC(=O)C(=O)NO)c1ccccc1
33 | 69 |  | 5 |  | 11 |  |  | C[C@H](NC(=O)[C@H](Cc1ccc(OCc2ccccc2)cc1)NC(=O)C(=O)NO)c1ccccc1
34 | 36 | 14 | 1 | 0.9 | 1 | 0.43 |  | C[C@H](NC(=O)[C@H](Cc1ccccc1)NC(=O)C(=O)NO)c1ccccc1
